Laboratory results from ChEMBL document CHEMBL1201862, “PubChem BioAssay data set” (2004).
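Protocol summary: plate cells (96-well), add compound at 5 concentrations, incubate 48 h, interpolate endpoints linearly. GI50 = concentration required for 50% inhibition of growth.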 Active and inactive are the calls of the source. Rule as the data show it: active = GI50 up to about 1.1 µM and inactive = higher.

Columns and labels:
Test in all cases: NCI anticancer screen, dose series, 48 h
UACC-62 = system: UACC-62
SK-MEL-2 = system: SK-MEL-2
786-0 = system: 786-0
CAKI-1 = system: CAKI-1
MCF7 = system: MCF7
LOX IMVI = system: LOX IMVI
A498 = system: A498
HOP-62 = system: HOP-62
Hs-578T = system: Hs-578T
UO-31 = system: UO-31
RXF 393 = system: RXF 393
A549 = system: A549
SK-OV-3 = system: SK-OV-3
PC-3 = system: PC-3
DU-145 = system: DU-145
SF-539 = system: SF-539
OVCAR-4 = system: OVCAR-4
UACC-257 = system: UACC-257
HOP-92 = system: HOP-92

SMILES	GI50 (UACC-62)	GI50 (SK-MEL-2)	GI50 (786-0)	GI50 (CAKI-1)	GI50 (MCF7)	GI50 (LOX IMVI)	GI50 (A498)	GI50 (HOP-62)	GI50 (Hs-578T)	GI50 (UO-31)	GI50 (RXF 393)	GI50 (A549)	GI50 (SK-OV-3)	GI50 (PC-3)	GI50 (DU-145)	GI50 (SF-539)	GI50 (OVCAR-4)	GI50 (UACC-257)	GI50 (HOP-92)
N=C(N)NNC(=O)C(=O)O	> 100 µM (inactive)	> 100 µM (inactive)	> 100 µM (inactive)	> 100 µM (inactive)	> 100 µM (inactive)	> 100 µM (inactive)	> 100 µM (inactive)	> 100 µM (inactive)	> 100 µM (inactive)	> 100 µM (inactive)	> 100 µM (inactive)	> 100 µM (inactive)	55.1 µM (inactive)	> 100 µM (inactive)	> 100 µM (inactive)	> 100 µM (inactive)	> 100 µM (inactive)	> 100 µM (inactive)	–
COc1ccc2o/c(=N/c3ccccc3)c(C(N)=O)cc2c1	–	> 100 µM (inactive)	> 57.8 µM (inactive)	> 71.3 µM (inactive)	45.9 µM (inactive)	> 100 µM (inactive)	–	32.2 µM (inactive)	42.9 µM (inactive)	> 36.7 µM (inactive)	39.5 µM (inactive)	> 55.3 µM (inactive)	39.2 µM (inactive)	> 100 µM (inactive)	> 100 µM (inactive)	> 75.3 µM (inactive)	> 100 µM (inactive)	> 100 µM (inactive)	> 50.9 µM (inactive)
COc1ccccc1NC(=S)Nc1cc(C)ccn1	> 100 µM (inactive)	> 100 µM (inactive)	> 100 µM (inactive)	> 100 µM (inactive)	> 100 µM (inactive)	> 100 µM (inactive)	> 100 µM (inactive)	66.8 µM (inactive)	> 100 µM (inactive)	> 100 µM (inactive)	96.6 µM (inactive)	> 100 µM (inactive)	> 100 µM (inactive)	> 100 µM (inactive)	> 100 µM (inactive)	> 100 µM (inactive)	> 100 µM (inactive)	> 100 µM (inactive)	–
CCNC(=S)N/N=C/c1cc(OC)ccc1O	99.1 µM (inactive)	> 100 µM (inactive)	67.1 µM (inactive)	–	5.74 µM (inactive)	99.3 µM (inactive)	–	> 100 µM (inactive)	> 100 µM (inactive)	7.01 µM (inactive)	> 100 µM (inactive)	52.8 µM (inactive)	> 100 µM (inactive)	56.2 µM (inactive)	> 100 µM (inactive)	> 100 µM (inactive)	33.7 µM (inactive)	> 100 µM (inactive)	45.1 µM (inactive)
COc1ccccc1NC(=S)N/N=C(/C)c1ccccn1	0.238 µM (active)	7.5 µM (inactive)	< 0.0123 µM (active)	0.0132 µM (active)	< 0.01 µM (active)	< 0.01 µM (active)	–	< 0.0127 µM (active)	> 37.5 µM (inactive)	1.37 µM (inactive)	0.658 µM (active)	< 0.0274 µM (active)	< 0.0213 µM (active)	< 0.01 µM (active)	1.28 µM (inactive)	0.371 µM (active)	0.184 µM (active)	< 0.01 µM (active)	6.93 µM (inactive)
Nc1ncc2ncn(C3CCC(CO)O3)c2n1 (centres undefined)	> 100 µM (inactive)	> 100 µM (inactive)	> 100 µM (inactive)	> 100 µM (inactive)	> 100 µM (inactive)	> 100 µM (inactive)	88.7 µM (inactive)	> 100 µM (inactive)	> 100 µM (inactive)	> 100 µM (inactive)	–	> 100 µM (inactive)	> 100 µM (inactive)	> 100 µM (inactive)	> 100 µM (inactive)	> 100 µM (inactive)	> 100 µM (inactive)	> 100 µM (inactive)	–
C=C1C(=O)CC2C1CC(=O)/C(C)=C/CCC(C)(O)C2O (centres undefined)	0.603 µM (active)	0.986 µM (active)	4.55 µM (inactive)	1.55 µM (inactive)	0.249 µM (active)	5.47 µM (inactive)	1.19 µM (inactive)	26.7 µM (inactive)	5.4 µM (inactive)	11.7 µM (inactive)	6.67 µM (inactive)	27.3 µM (inactive)	2.84 µM (inactive)	0.853 µM (active)	8.77 µM (inactive)	–	10.9 µM (inactive)	0.708 µM (active)	8.67 µM (inactive)
CC(=O)OCC1OC(n2c(Br)nc3c2c(=O)n(C)c(=O)n3C)C(OC(C)=O)C1OC(C)=O (centres undefined)	67.6 µM (inactive)	–	89.9 µM (inactive)	> 100 µM (inactive)	69.8 µM (inactive)	43.2 µM (inactive)	43 µM (inactive)	> 100 µM (inactive)	45.8 µM (inactive)	> 100 µM (inactive)	> 100 µM (inactive)	> 100 µM (inactive)	> 100 µM (inactive)	45.8 µM (inactive)	38.2 µM (inactive)	59.2 µM (inactive)	27.5 µM (inactive)	50.2 µM (inactive)	83 µM (inactive)
c1ccc2cc(OCC3CO3)c(OCC3CO3)cc2c1 (centres undefined)	2.84 µM (inactive)	10.9 µM (inactive)	1.54 µM (inactive)	4.09 µM (inactive)	0.388 µM (active)	1.03 µM (active)	2 µM (inactive)	1.43 µM (inactive)	3.89 µM (inactive)	2.37 µM (inactive)	< 0.01 µM (active)	3.68 µM (inactive)	10.6 µM (inactive)	12.7 µM (inactive)	3.85 µM (inactive)	2.65 µM (inactive)	–	10.2 µM (inactive)	8.55 µM (inactive)
Nc1csc(-c2scc3c2OCCO3)c1N	14.4 µM (inactive)	17.5 µM (inactive)	17.3 µM (inactive)	32.1 µM (inactive)	16.4 µM (inactive)	16 µM (inactive)	17.6 µM (inactive)	15.6 µM (inactive)	27.8 µM (inactive)	17.9 µM (inactive)	17.9 µM (inactive)	21.4 µM (inactive)	–	23 µM (inactive)	19.8 µM (inactive)	24.9 µM (inactive)	26.6 µM (inactive)	16.7 µM (inactive)	19.4 µM (inactive)
O=P1(c2ccccc2)c2ccccc2-c2ccccc21	82.2 µM (inactive)	> 100 µM (inactive)	> 100 µM (inactive)	81.8 µM (inactive)	> 100 µM (inactive)	> 100 µM (inactive)	–	> 100 µM (inactive)	> 100 µM (inactive)	> 100 µM (inactive)	93.8 µM (inactive)	> 100 µM (inactive)	> 100 µM (inactive)	55.3 µM (inactive)	> 100 µM (inactive)	> 100 µM (inactive)	–	> 100 µM (inactive)	13.9 µM (inactive)
CCCC(Sc1nc(N)nc2nc[nH]c12)C(=O)O (centres undefined)	36.6 µM (inactive)	> 100 µM (inactive)	92.5 µM (inactive)	41 µM (inactive)	62.4 µM (inactive)	34.5 µM (inactive)	> 100 µM (inactive)	> 100 µM (inactive)	> 100 µM (inactive)	65.2 µM (inactive)	81.5 µM (inactive)	> 100 µM (inactive)	58.3 µM (inactive)	> 100 µM (inactive)	57.9 µM (inactive)	–	> 100 µM (inactive)	> 100 µM (inactive)	> 100 µM (inactive)
CC(C)c1cc(Cl)nc(Cl)n1	> 100 µM (inactive)	> 100 µM (inactive)	> 100 µM (inactive)	> 100 µM (inactive)	> 100 µM (inactive)	> 100 µM (inactive)	> 100 µM (inactive)	–	> 100 µM (inactive)	> 100 µM (inactive)	> 100 µM (inactive)	> 100 µM (inactive)	> 100 µM (inactive)	> 100 µM (inactive)	> 100 µM (inactive)	> 100 µM (inactive)	> 100 µM (inactive)	> 100 µM (inactive)	–
CCOC(=O)c1nc2cc(C(F)(F)F)ccc2nc1Oc1ccc(C#N)cc1	> 100 µM (inactive)	> 100 µM (inactive)	> 100 µM (inactive)	> 100 µM (inactive)	> 100 µM (inactive)	71.8 µM (inactive)	69.8 µM (inactive)	–	> 100 µM (inactive)	> 100 µM (inactive)	19.1 µM (inactive)	> 100 µM (inactive)	–	> 100 µM (inactive)	> 100 µM (inactive)	> 100 µM (inactive)	> 100 µM (inactive)	> 100 µM (inactive)	> 100 µM (inactive)
CC(O)C(O)C(O)C(/C=N\Nc1ccccc1)=N/Nc1ccccc1 (centres undefined)	10 µM (inactive)	8.63 µM (inactive)	14.2 µM (inactive)	2.18 µM (inactive)	10.5 µM (inactive)	4.58 µM (inactive)	9.02 µM (inactive)	14.4 µM (inactive)	11 µM (inactive)	12.2 µM (inactive)	–	11.4 µM (inactive)	15.6 µM (inactive)	15.8 µM (inactive)	15.1 µM (inactive)	15.1 µM (inactive)	–	–	14.7 µM (inactive)
Cc1ccc2nc(-c3ccc(NC(=O)c4ccc(N)cc4)c(S(=O)(=O)O)c3)sc2c1	> 100 µM (inactive)	–	> 100 µM (inactive)	> 100 µM (inactive)	> 100 µM (inactive)	> 100 µM (inactive)	> 100 µM (inactive)	> 100 µM (inactive)	> 100 µM (inactive)	> 100 µM (inactive)	> 100 µM (inactive)	> 100 µM (inactive)	> 100 µM (inactive)	> 100 µM (inactive)	> 100 µM (inactive)	–	> 100 µM (inactive)	> 100 µM (inactive)	> 100 µM (inactive)
